According to publication PMC7071032, “In Vitro Inhibition of Hsp90 Protein by Benzothiazoloquinazolinequinones Is Enhanced in The Presence of Ascorbate. A Preliminary In Vivo Antiproliferative Study” (Molecules, 2020):
Where two headings read alike, the source gives them in different places.

Columns and labels:
[1] = system: panel of cancer cells (T24, DU-145, MCF-7); assay: MTT reduction assay, panel of cancer cells (means, ranges, selectivity index); type: cell-based, human; conditions: for IC50: Homo sapiens; for MSI: mean selective index: IC50 values of fibroblasts (AG 1523)/IC50 values of tumor cells (T24, DU-145, MCF-7)
Procedure: (§1) As positive control, two well-known anticancer drugs, namely TAM and 5-FU, were also tested on these cell lines. […] Regarding 5-FU, it is a broad-spectrum chemotherapeutic drug used to treat a variety of malignancies. Particularly, it has a long history of use against bladder tumors.
Such a selective index was calculated as the ratio between IC50 values of healthy cells/IC50 values in cancer cells.
(§2) Cells were seeded into 96-well plates at a density of 10,000 cells/well for 24 h and then incubated for 48 h with or without the quinone derivatives. […] The IC50 values were determined using the GraphPad Prism software (San Diego, CA, USA). Further incubation procedures and optical density reading of colored solutions were performed according to Benites et al..

[2] = system: MCF-7 (breast) cells; assay: MTT reduction assay, MCF-7 cells; type: cell-based; conditions: Homo sapiens, MCF7, 48 h incubation, read-out: IC50 ± SEM MCF-7
Procedure: as §1
(§3) Cell culture conditions were the same as reported elsewhere. Briefly, cell lines were kept in DMEM containing 10% fetal calf serum. In addition, 100 U/mL of penicillin and 100 µg/mL streptomycin from Gibco (Grand Island, NY, USA) were further added. Cell cultures were kept at 37 °C under an atmosphere of 95% air/5% CO2 and 100% humidity. Sodium L-ascorbate, menadione (vitamin K3), TAM, and 5-FU were purchased from Sigma (St. Louis, MO, USA).
(§4) The cytotoxicity of the quinones was assessed by following the reduction of MTT (3-(4,5-dimethylthiazol-2-yl)-2,5-diphenyltetrazolium bromide) to formazan blue and the capability of cancer cells to proliferate, namely a clonogenic assay.
as §2

[3] = system: non-tumor fibroblasts AG 1523; assay: MTT reduction assay, non-tumor fibroblasts; type: cell-based; conditions: Homo sapiens, AG1523, 48 h incubation, read-out: IC50 ± SEM AG 1523
Procedure: as §1, §3, §4, §2

[4] = system: T24 (bladder) cells; assay: MTT reduction assay, T24 cells; type: cell-based; conditions: Homo sapiens, T-24, 48 h incubation, read-out: IC50 ± SEM T24
Procedure: as §1, §3, §4, §2

[5] = system: DU-145 (prostate) cells; assay: MTT reduction assay, DU-145 cells; type: cell-based; conditions: Homo sapiens, DU-145, 48 h, read-out: IC50 ± SEM DU-145
Procedure: as §1, §3, §4, §2

[6] = system: MCF-7 (breast) cells; set-up: method as in doi:10.1016/j.tetlet.2015.07.034; conditions: MTT, data from Valderrama et al. ref 16, read-out: IC50 ± SEM MCF-7; cited from earlier work
[7] = system: DU-145 (prostate) cells; set-up: method as in doi:10.1016/j.tetlet.2015.07.034; conditions: read-out: IC50 ± SEM DU-145, MTT, data from Valderrama et al. ref 16; cited from earlier work
[8] = system: T24 (bladder) cells; set-up: method as in doi:10.1016/j.tetlet.2015.07.034; conditions: MTT, data from Valderrama et al. ref 16, read-out: IC50 ± SEM T24; cited from earlier work
[9] = system: T24 cells; assay: Clonogenic assay; type: cell-based, human; conditions: for cell growth compared to control conditions (100%), in brackets / number of colony forming units (CFUs): T24 cells; for number of colony forming units (CFUs): 24 h treatment, 10 days growth
Procedure: Indeed, at a dose of 0.25 µM, it decreased from 195 to 72 the number of CFUs. Otherwise, it inhibits the proliferation of T24 cells by 63% as compared to the control untreated cells. […] The percentages of the observed cell growth compared to control conditions (100%) are indicated in brackets. […] Cells were allowed to adhere overnight, and then treated with quinones for 24 h. Afterward, they were washed with warm PBS, given fresh medium, and allowed to grow for 10 days. Clonogenic survival was determined by fixing and staining colonies using crystal violet and further counting their number. The number of colonies calculated under control conditions was set as 100%.

[10] = read-out: mean IC50 value calculated from the individual IC50 values of the three cancer cell lines
[11] = read-out: IC50 values on the panel of cancer cells (range over cell lines)

Compound | IC50 [1, 10] [µM] | MSI: mean selective index [1] | IC50 [2] [µM] | IC50 [3] [µM] | IC50 [4] [µM] | IC50 [5] [µM] | further results
O=c1[nH]cc(F)c(=O)[nH]1 [5-Fluorouracil, 5-fluorouracil, reference compound] | 7.8 | – | – | – | – | – | –
CC1(O)C2=C(N=C3Sc4ccccc4N31)C(=O)c1ccccc1C2=O (centres unmarked) [Compound 11] | – | 1.52 | 6.83 ± 1.29 | 10.7 ± 0.57 | 4.65 ± 0.43 | 9.59 ± 0.32 | –
CCCC1(O)C2=C(N=C3Sc4ccccc4N31)C(=O)c1ccccc1C2=O (centres unmarked) [Compound 12] | – | 1.28 | – | 8.82 ± 0.27 | – | – | IC50 [6]: 4.25 ± 0.5 µM; IC50 [7]: 11.6 ± 2.05 µM; IC50 [8]: 4.86 ± 0.5 µM
CCCCCC1(O)C2=C(N=C3Sc4ccccc4N31)C(=O)c1ccccc1C2=O (centres unmarked) [Compound 13] | – | 1.24 | 5.83 ± 0.25 | 8.55 ± 0.35 | 6.85 ± 0.54 | 7.99 ± 0.17 | –
CCCCCCCC1(O)C2=C(N=C3Sc4ccccc4N31)C(=O)c1ccccc1C2=O (centres unmarked) [Compound 14] | – | 0.90 | 6.84 ± 0.79 | 7.28 ± 0.39 | 8.42 ± 1.27 | 9.04 ± 0.69 | –
CCCC1(O)C2=C(N=C3Sc4cc(C)ccc4N31)C(=O)c1ccccc1C2=O (centres unmarked) [Compound 16] | 1.1 to 1.61 | 2.62 | – | 3.46 ± 0.08 | – | – | IC50 [1, 11]: 0.11 to 1.77 µM; IC50 [6]: 1.77 ± 0.26 µM; cell growth compared to control conditions (100%), in brackets ([9]; 0.025 µM): 101%; number of colony forming units (CFUs) ([9]; 0.025 µM): 204 ± 19 CFUs; cell growth compared to control conditions (100%), in brackets ([9]; 0.125 µM): 107%; number of colony forming units (CFUs) ([9]; 0.125 µM): 216 ± 29 CFUs; cell growth compared to control conditions (100%), in brackets ([9]; 0.25 µM): 94%; number of colony forming units (CFUs) ([9]; 0.25 µM): 189 ± 12 CFUs; cell growth compared to control conditions (100%), in brackets ([9]; 1.25 µM): 39%; number of colony forming units (CFUs) ([9]; 1.25 µM): 79 ± 9 CFUs; cell growth compared to control conditions (100%), in brackets ([9]; 2.5 µM): 29%; number of colony forming units (CFUs) ([9]; 2.5 µM): 58 ± 12 CFUs; cell growth compared to control conditions (100%), in brackets ([9]; 5.0 µM): 11%; number of colony forming units (CFUs) ([9]; 5.0 µM): 23 ± 15 CFUs; IC50 [7]: 0.85 ± 0.1 µM; IC50 [8]: 1.36 ± 0.15 µM
CCCCCCCC1(O)C2=C(N=C3Sc4cc(C)ccc4N31)C(=O)c1ccccc1C2=O (centres unmarked) [Compound 18] | – | 0.89 | 7.12 ± 0.65 | 6.02 ± 0.29 | 5.6 ± 0.29 | 7.55 ± 0.69 | –
COc1ccc2c(c1)SC1=NC3=C(C(=O)c4ccccc4C3=O)C(C)(O)N12 (centres unmarked) [Compound 19] | 1.1 to 1.61 | 3.97 | – | 6.4 ± 0.46 | – | – | IC50 [1, 11]: 0.11 to 1.77 µM; IC50 [6]: 2.72 ± 0.18 µM; inhibition at 0.25 µM ([9]; Homo sapiens, T-24, clonogenic assay, 0.25 µM, read-out: inhibition of the proliferation of T24 cells as compared to control untreated cells): 28%; cell growth compared to control conditions (100%), in brackets ([9]; 0.025 µM): 102%; number of colony forming units (CFUs) ([9]; 0.025 µM): 195 ± 16 CFUs; cell growth compared to control conditions (100%), in brackets ([9]; 0.125 µM): 96%; number of colony forming units (CFUs) ([9]; 0.125 µM): 183 ± 21 CFUs; cell growth compared to control conditions (100%), in brackets ([9]; 0.25 µM): 72%; number of colony forming units (CFUs) ([9]; 0.25 µM): 138 ± 18 CFUs; cell growth compared to control conditions (100%), in brackets ([9]; 1.25 µM): 36%; number of colony forming units (CFUs) ([9]; 1.25 µM): 68 ± 12 CFUs; cell growth compared to control conditions (100%), in brackets ([9]; 2.5 µM): 16%; number of colony forming units (CFUs) ([9]; 2.5 µM): 30 ± 16 CFUs; cell growth compared to control conditions (100%), in brackets ([9]; 5.0 µM): 18%; number of colony forming units (CFUs) ([9]; 5.0 µM): 35 ± 11 CFUs; IC50 [7]: 0.79 ± 0.11 µM; IC50 [8]: 1.32 ± 0.11 µM
CCCC1(O)C2=C(N=C3Sc4cc(OC)ccc4N31)C(=O)c1ccccc1C2=O (centres unmarked) [Compound 20] | 1.1 to 1.61 | 3.17 | 1.67 ± 0.12 | 4.99 ± 0.59 | 1.89 ± 0.15 | 1.13 ± 0.05 | IC50 [1, 11]: 0.11 to 1.77 µM; cell growth compared to control conditions (100%), in brackets ([9]; 0.025 µM): 96%; number of colony forming units (CFUs) ([9]; 0.025 µM): 204 ± 17 CFUs; cell growth compared to control conditions (100%), in brackets ([9]; 0.125 µM): 100%; number of colony forming units (CFUs) ([9]; 0.125 µM): 214 ± 25 CFUs; cell growth compared to control conditions (100%), in brackets ([9]; 0.25 µM): 106%; number of colony forming units (CFUs) ([9]; 0.25 µM): 225 ± 19 CFUs; cell growth compared to control conditions (100%), in brackets ([9]; 1.25 µM): 55%; number of colony forming units (CFUs) ([9]; 1.25 µM): 118 ± 22 CFUs; cell growth compared to control conditions (100%), in brackets ([9]; 2.5 µM): 42%; number of colony forming units (CFUs) ([9]; 2.5 µM): 89 ± 10 CFUs; cell growth compared to control conditions (100%), in brackets ([9]; 5.0 µM): 22%; number of colony forming units (CFUs) ([9]; 5.0 µM): 46 ± 7 CFUs
CCCCCC1(O)C2=C(N=C3Sc4cc(OC)ccc4N31)C(=O)c1ccccc1C2=O (centres unmarked) [Compound 21] | – | 1.78 | 4.63 ± 0.3 | 11.3 ± 1.1 | 7.09 ± 0.14 | 7.43 ± 0.28 | –
CCCCCCCC1(O)C2=C(N=C3Sc4cc(OC)ccc4N31)C(=O)c1ccccc1C2=O (centres unmarked) [Compound 22] | – | 1.11 | 3.52 ± 0.32 | 5.97 ± 0.24 | 5.95 ± 0.45 | 6.62 ± 0.19 | –
O=C1C2=C(C(=O)c3ccccc31)C(O)(c1ccco1)N1C(=N2)Sc2ccccc21 (centres unmarked) [Compound 23] | 10.5 to 12.6 | 1.72 | 8.62 ± 0.72 | 21.7 ± 0.27 | 9.29 ± 0.77 | 19.9 ± 0.5 | –
COc1ccc2c(c1)SC1=NC3=C(C(=O)c4ccccc4C3=O)C(O)(c3ccco3)N12 (centres unmarked) [Compound 24] | – | 10.1 | 11.7 ± 0.65 | 90.1 ± 1.21 | 10.4 ± 1 | 4.69 ± 0.33 | –
O=C1C2=C(C(=O)c3ccccc31)C(O)(c1cccs1)N1C(=N2)Sc2ccccc21 (centres unmarked) [Compound 25] | – | 1.60 | 7.32 ± 0.36 | 12.8 ± 0.31 | 8.72 ± 0.41 | 7.85 ± 0.6 | –
O=C1C2=C(C(=O)c3ccccc31)C(O)(c1cccs1)N1C(=N2)Sc2cc(F)ccc21 (centres unmarked) [Compound 26] | 10.5 to 12.6 | 1.88 | 7.46 ± 0.53 | 19.8 ± 0.83 | 13.4 ± 2.37 | 10.8 ± 1.01 | –
